For the experiment, the system named is PKB Ser473 phosphorylation in Rat1-myr-HA-p110 alpha cells. Nature of the experiment: Reverse protein array assay, PKB Ser473 phosphorylation in Rat1-myr-p110 alpha cells. The experiment is classed as cell-based. To be noted: 0.5 h, pAkt Ser473, 30 minutes compound incubation, read-out: p-PKB IC50. The gist of the method: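 Compound exposure lasted 30 min in Rat1 cells bearing membrane-targeted HA-p110 isoforms, using 8 serial concentrations. Arrayed lysates, each spotted at four dilutions, gave relative fluorescence signals for phospho-Ser473 PKB.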

One may read the IC50 as the point on the concentration scale where inhibition reaches its midpoint. As to `Cn1cc(-n2c(=O)n(C)c3cnc4ccc(-c5cnc(N)c(CO)c5)cc4c32)c(Cl)n1` [Example 169.3, 8-(6-Amino-5-hydroxymethyl-pyridin-3-yl)-1-(3-chloro-1-methyl-1H-pyrazol-4-yl)-3-methyl-1,3-dihydro-imidazo[4,5-c]quinolin-2-one], the IC50 stood at 19 nM.

Turning to `Cc1nn(C)cc1-n1c(=O)n(C)c2cnc3ccc(-c4cncc(OCC5CC5)c4)cc3c21` [Example 61, 8-(5-Cyclopropylmethoxy-pyridin-3-yl)-1-(1,3-dimethyl-1H-pyrazol-4-yl)-3-methyl-1,3-dihydro-imidazo[4,5-c]quinolin-2-one], the IC50 was determined as 13 nM.

Turning to `Cc1nn(C)c(C)c1-n1c(=O)n(C)c2cnc3ccc(-c4cnc(N)nc4)cc3c21` [Example 81.2, 8-(2-Amino-pyrimidin-5-yl)-3-methyl-1-(1,3,5-trimethyl-1H-pyrazol-4-yl)-1,3-dihydro-imidazo[4,5-c]quinolin-2-one], the IC50 worked out at 220 nM.

Turning to `CCOc1ccc(-c2ccc3ncc4c(c3c2)n(-c2cn(CC(=O)N3CCC3)nc2C)c(=O)n4C)cn1` [Example 138, 1-[1-(2-Azetidin-1-yl-2-oxo-ethyl)-3-methyl-1H-pyrazol-4-yl]-8-(6-ethoxy-pyridin-3-yl)-3-methyl-1,3-dihydro-imidazo[4,5-c]quinolin-2-one], the IC50 stood at 36 nM.

Turning to `Cc1nn(C)cc1-n1c(=O)[nH]c2cnc3ccc(-c4cnc(N(C)C)nc4)cc3c21` [Example 207, 8-(2-Dimethylamino-pyrimidin-5-yl)-1-(1,3-dimethyl-1H-pyrazol-4-yl)-1,3-dihydro-imidazo[4,5-c]quinolin-2-one], the IC50 came out at 65 nM.

As to `CCc1ncc(-c2ccc3ncc4c(c3c2)n(-c2cn(C)nc2C)c(=O)n4C)cc1NC(C)C` [Example 162, 1-(1,3-Dimethyl-1H-pyrazol-4-yl)-8-(6-ethyl-5-isopropylamino-pyridin-3-yl)-3-methyl-1,3-dihydro-imidazo[4,5-c]quinolin-2-one], the IC50 was under 5 nM.

On to `CCn1cc(-n2c(=O)n(C)c3cnc4ccc(-c5cncc(C(C)(C)O)c5)cc4c32)c(C)n1` [Example 215.4, 1-(1-Ethyl-3-methyl-1H-pyrazol-4-yl)-8-[5-(1-hydroxy-1-methyl-ethyl)-pyridin-3-yl]-3-methyl-1,3-dihydro-imidazo[4,5-c]quinolin-2-one], for which the concentration for half-maximal inhibition (IC50) worked out at 20 nM.

In the case of `Cc1nn(C(C)C)cc1-n1c(=O)n(C)c2cnc3ccc(-c4ccc(N)nc4)cc3c21` [Example 23.2, 8-(6-Amino-pyridin-3-yl)-1-(1-isopropyl-3-methyl-1H-pyrazol-4-yl)-3-methyl-1,3-dihydro-imidazo[4,5-c]quinolin-2-one], the IC50 was found to be 11 nM.

For the compound `COCCN(C)C(=O)Cn1cc(-n2c(=O)n(C)c3cnc4ccc(-c5ccccc5)cc4c32)c(C)n1` [Example 137, N-(2-Methoxy-ethyl)-N-methyl-2-[3-methyl-4-(3-methyl-2-oxo-8-phenyl-2,3-dihydro-imidazo[4,5-c]quinolin-1-yl)-pyrazol-1-yl]-acetamide], the IC50 stood at 324 nM.

Turning to `CNc1ncc(-c2ccc3ncc4c(c3c2)n(-c2cn(C)nc2C)c(=O)n4C)cc1C(F)(F)F` [Example 144.3, 1-(1,3-Dimethyl-1H-pyrazol-4-yl)-3-methyl-8-(6-methylamino-5-trifluoromethyl-pyridin-3-yl)-1,3-dihydro-imidazo[4,5-c]quinolin-2-one], the IC50 was under 5 nM.

In the case of `Cc1nn(C)cc1-n1c(=O)n(C)c2cnc3ccc(-c4ccc(N)nc4)cc3c21` [Example 23.1, 8-(6-Amino-pyridin-3-yl)-1-(1,3-dimethyl-1H-pyrazol-4-yl)-3-methyl-1,3-dihydro-imidazo[4,5-c]quinolin-2-one], the IC50 is 13 nM.

`CCOc1cncc(-c2ccc3ncc4c(c3c2)n(-c2c(C)cnn2C)c(=O)n4C)c1` [Example 56.5, 1-(2,4-Dimethyl-2H-pyrazol-3-yl)-8-(5-ethoxy-pyridin-3-yl)-3-methyl-1,3-dihydro-imidazo[4,5-c]quinolin-2-one]: the IC50 was 846 nM.

The record behind these values is US20140005163A1 (NOVARTIS AG, priority 2010, published 2014).
